Laboratory results taken from ChEMBL document CHEMBL1773038, “In silico and in vitro validation of serine hydroxymethyltransferase as a chemotherapeutic target of the antifolate drug pemetrexed” (Eur J Med Chem, 2011).

How the values were obtained:
[1] = target: T1, Serine hydroxymethyltransferase, cytosolic (Homo sapiens, UniProt P34896); test: Binding affinity to human recombinant Serine hydroxymethyltransferase, cytosolic by isothermal titration calorimetry
T1 sequence (P34896 whole entry): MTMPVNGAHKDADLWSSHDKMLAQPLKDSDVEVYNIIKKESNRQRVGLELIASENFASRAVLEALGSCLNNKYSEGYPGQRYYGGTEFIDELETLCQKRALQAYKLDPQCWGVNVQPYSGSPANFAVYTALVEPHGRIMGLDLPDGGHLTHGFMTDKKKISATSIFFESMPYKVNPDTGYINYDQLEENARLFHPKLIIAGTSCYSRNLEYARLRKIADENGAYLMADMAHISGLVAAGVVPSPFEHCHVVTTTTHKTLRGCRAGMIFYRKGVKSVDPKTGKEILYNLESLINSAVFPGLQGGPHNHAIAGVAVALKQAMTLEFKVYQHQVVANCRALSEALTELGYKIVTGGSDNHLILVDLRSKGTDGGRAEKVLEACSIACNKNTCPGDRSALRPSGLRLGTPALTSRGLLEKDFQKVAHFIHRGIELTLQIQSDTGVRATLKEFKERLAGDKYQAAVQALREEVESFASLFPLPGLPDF

[2] = target: T1, Serine hydroxymethyltransferase, cytosolic; test: Competitive inhibition of human recombinant Serine hydroxymethyltransferase, cytosolic by spectrophotometry
[3] = target: T1, Serine hydroxymethyltransferase, cytosolic; test: Mixed-type inhibition of human recombinant Serine hydroxymethyltransferase, cytosolic measured by Y-axes intercepts of mixed-type inhibition against compound concentration by spectrophotometry
[4] = target: T1, Serine hydroxymethyltransferase, cytosolic; test: Inhibition of human recombinant Serine hydroxymethyltransferase, cytosolic measured by slope intercepts of mixed-type inhibition against compound concentration by spectrophotometry

Kd [1]: 16.9 µM | Ki [2]: 19.1 µM | Ki [3]: 186 µM | Ki [4]: 33 µM
SMILES: Nc1nc2[nH]cc(CCc3ccc(C(=O)N[C@@H](CCC(=O)O)C(=O)O)cc3)c2c(=O)[nH]1 [PEMETREXED]
